Results from PMC4579064 (Toxicology and applied pharmacology, 2015).

Legend:
Assay in all cases: recombinant CYP activity with fluorogenic substrate
[1] = target: T1, CYP2B6 (Homo sapiens, UniProt P20813); assay type: biochemical
T1 sequence (P20813 1-491): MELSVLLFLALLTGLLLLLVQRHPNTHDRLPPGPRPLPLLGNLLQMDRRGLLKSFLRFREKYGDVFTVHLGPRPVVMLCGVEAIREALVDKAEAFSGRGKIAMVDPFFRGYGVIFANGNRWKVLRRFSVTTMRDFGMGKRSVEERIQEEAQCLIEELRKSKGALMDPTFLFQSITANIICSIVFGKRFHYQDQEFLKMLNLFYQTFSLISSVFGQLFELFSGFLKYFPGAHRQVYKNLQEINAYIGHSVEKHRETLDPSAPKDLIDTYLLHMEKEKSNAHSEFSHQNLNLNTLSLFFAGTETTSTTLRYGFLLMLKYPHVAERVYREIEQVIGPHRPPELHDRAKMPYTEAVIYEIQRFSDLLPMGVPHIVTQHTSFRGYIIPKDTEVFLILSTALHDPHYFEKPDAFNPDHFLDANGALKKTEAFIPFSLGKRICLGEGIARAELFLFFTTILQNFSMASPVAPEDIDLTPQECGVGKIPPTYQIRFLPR

[2] = target: T2, CYP2C8 (Homo sapiens, UniProt P10632); assay type: biochemical
T2 sequence (P10632 1-490): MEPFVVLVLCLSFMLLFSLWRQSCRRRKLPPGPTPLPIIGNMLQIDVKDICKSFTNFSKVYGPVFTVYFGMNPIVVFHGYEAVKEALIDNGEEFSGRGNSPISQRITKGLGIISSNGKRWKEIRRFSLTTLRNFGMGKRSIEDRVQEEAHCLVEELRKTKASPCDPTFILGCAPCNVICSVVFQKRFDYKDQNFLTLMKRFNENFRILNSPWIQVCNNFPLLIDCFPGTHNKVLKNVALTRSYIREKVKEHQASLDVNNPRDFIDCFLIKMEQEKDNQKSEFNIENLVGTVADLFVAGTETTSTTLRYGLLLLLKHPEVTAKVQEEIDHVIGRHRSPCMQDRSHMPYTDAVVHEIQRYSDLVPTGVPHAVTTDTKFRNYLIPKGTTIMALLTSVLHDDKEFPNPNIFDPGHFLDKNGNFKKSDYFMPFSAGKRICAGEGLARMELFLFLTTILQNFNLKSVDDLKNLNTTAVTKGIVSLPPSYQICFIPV

[3] = target: CYP2E1 (Homo sapiens, UniProt P05181); assay type: biochemical
[4] = target: T3, CYP1A1 (Homo sapiens, UniProt P04798)
T3 sequence (P04798 1-512): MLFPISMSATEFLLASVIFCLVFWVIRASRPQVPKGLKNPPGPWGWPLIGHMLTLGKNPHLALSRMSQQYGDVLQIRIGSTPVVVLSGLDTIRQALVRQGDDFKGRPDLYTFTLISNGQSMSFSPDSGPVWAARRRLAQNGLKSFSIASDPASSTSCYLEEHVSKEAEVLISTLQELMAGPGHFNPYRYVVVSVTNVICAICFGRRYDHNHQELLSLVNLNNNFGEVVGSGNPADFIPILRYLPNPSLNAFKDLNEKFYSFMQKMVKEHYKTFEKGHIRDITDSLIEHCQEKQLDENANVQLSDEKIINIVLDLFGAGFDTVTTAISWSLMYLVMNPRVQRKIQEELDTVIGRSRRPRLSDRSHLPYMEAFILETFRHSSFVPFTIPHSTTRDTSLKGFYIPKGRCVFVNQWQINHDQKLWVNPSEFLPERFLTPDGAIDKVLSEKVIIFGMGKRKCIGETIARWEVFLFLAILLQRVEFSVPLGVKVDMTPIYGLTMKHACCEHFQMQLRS
T3 sequence (P16435 2-677 partner): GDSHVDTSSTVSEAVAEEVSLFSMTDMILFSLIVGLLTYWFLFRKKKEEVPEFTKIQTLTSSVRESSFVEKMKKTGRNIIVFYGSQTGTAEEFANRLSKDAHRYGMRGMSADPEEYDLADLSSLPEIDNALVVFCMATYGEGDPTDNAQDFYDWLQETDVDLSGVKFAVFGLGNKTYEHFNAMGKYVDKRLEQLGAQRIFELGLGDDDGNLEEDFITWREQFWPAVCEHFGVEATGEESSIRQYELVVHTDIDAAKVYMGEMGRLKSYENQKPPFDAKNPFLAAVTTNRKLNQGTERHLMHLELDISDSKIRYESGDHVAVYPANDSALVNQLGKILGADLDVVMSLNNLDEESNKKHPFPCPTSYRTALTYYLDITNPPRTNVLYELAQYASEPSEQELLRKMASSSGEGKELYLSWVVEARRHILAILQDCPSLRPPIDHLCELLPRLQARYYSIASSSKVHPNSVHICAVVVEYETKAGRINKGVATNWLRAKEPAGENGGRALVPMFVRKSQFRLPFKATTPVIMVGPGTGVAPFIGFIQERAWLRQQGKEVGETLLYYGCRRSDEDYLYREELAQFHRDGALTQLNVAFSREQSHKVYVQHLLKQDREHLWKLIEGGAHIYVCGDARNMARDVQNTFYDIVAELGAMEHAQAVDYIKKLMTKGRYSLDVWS

[5] = target: T4, CYP1A2 (Homo sapiens, UniProt P05177)
T4 sequence (P05177 2-516 limits assumed): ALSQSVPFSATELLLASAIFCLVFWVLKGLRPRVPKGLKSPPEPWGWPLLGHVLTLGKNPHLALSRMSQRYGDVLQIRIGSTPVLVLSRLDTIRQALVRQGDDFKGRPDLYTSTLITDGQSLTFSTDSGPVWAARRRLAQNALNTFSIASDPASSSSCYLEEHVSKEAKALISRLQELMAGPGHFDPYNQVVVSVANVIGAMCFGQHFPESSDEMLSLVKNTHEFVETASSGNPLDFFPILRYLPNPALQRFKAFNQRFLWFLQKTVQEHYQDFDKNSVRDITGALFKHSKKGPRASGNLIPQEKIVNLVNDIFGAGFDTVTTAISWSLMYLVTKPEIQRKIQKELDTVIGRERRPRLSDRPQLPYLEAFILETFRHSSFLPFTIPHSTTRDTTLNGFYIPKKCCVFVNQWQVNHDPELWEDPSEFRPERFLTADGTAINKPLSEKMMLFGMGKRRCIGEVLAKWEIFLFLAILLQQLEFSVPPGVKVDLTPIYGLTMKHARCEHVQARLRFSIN

Sequence of CYP2E1 (P05181 whole entry, one chain of several): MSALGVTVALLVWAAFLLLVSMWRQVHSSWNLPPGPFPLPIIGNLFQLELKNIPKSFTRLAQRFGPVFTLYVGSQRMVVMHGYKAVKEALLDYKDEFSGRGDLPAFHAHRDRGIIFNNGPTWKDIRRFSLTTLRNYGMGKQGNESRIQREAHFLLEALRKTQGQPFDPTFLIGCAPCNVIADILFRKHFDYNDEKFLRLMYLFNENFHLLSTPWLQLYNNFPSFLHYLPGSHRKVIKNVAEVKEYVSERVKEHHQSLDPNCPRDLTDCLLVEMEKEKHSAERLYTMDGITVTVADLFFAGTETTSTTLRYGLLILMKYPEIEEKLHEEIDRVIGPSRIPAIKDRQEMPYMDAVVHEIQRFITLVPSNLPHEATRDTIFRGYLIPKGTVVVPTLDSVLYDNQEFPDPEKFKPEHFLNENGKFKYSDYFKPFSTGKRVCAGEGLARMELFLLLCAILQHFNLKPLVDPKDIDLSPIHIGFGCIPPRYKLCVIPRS

Question: For `CC1=CC(=O)c2ccccc2C1=O` [menadione, 2-methylnaphthalene-1,4-dione], which IC50 [1] is on record?
Answer: 5.76 ± 0.78 µM

Question: And the IC50 [2]?
Answer: 2.36 ± 0.11 µM

Question: And the IC50 [3]?
Answer: 5.58 ± 1.22 µM

Question: What about the IC50 [4] of the same compound?
Answer: 4.39 ± 0.42 µM

Question: And the IC50 [5]?
Answer: 4.51 ± 0.57 µM
